Consider two compounds from paper PMC7504818, “Synthetic Analogues of Aminoadamantane as Influenza Viral Inhibitors—In Vitro, In Silico and QSAR Studies” (Molecules, 2020).

For data set [1], the system named is influenza virus A/H3N2, strain Hong Kong 68. The experiment in a line: Antiviral activity against influenza virus A/H3N2, strain Hong Kong 68 (crystal violet uptake assay in MDCK cells). It is filed as cell-based. The note with it: Influenza A virus, H3N2, MDCK, read-out: IC50 (μM) Against A/Hong Kong/68. Here is the method: The synthesized compounds were tested for antiviral activity against the influenza virus A/H3N2, strain Hong Kong 68.
In order to identify new potential antiviral drugs, small amounts of extracts or compounds have to be examined for cytotoxicity and antiviral activity in primary screening using a rapid, easy, inexpensive and highly standardized test system. The cytotoxic and the antiviral effects were quantified using a crystal violet uptake assay allowing automated handling of large numbers of candidate agents. […] Madin-Darby Kanine Kidney Cells (MDCK) cells were seeded at 2 × 10^4 cells per well in 96-well flat-bottomed microtiter plates (Falcon 3075). The cytotoxicity of the test compounds was determined on 2-day-old confluent MDCK cell monolayers grown in the internal 60 wells (5% CO2, 37 °C). After removal of the growth medium, two-fold dilutions of the compounds in 100 µL test medium were added and incubated at 37 °C in a 5% CO2 atmosphere for 72 h. Cells in six wells without compound treatment served as basic controls. The Dynex Immuno Assay System (DIAS, Guernsey, UK) developed for automated ELISA techniques was applied to wash gently, stain, measure and analyze the viability of the cell monolayers in cytotoxic, as well as antiviral assays. The staining procedure undertaken with crystal violet was based on the principles described by Nain et al. for the determination of the cytotoxic activity of TNF-α [20]. At first, the supernatant was aspirated and the cell monolayers were washed three times with […] physiological sodium chloride solution to remove dead cells. Secondly, the cells were fixed and stained in one step with 50 µL of 0.03% crystal violet (w/v) in 20% methanol for 10 min. […] Then the optical density of individual wells was quantified spectrophotometrically at 540/630 nm and analyzed with the DIAS. Cell viability was evaluated as the percentage of the mean value of optical density, resulting from the six cell controls, which was set 100%. The 50% cytotoxic concentrations (CC50) were calculated from the mean dose–response curves of three assays each with two parallels.
To exclude non-specific antiviral activities of test compounds, their cytotoxic effects have to be determined not only on confluent cell monolayers but also on proliferating cell cultures in the primary antiviral screening. The cytotoxicity and the growth inhibition of compounds were quantified using an automated crystal violet staining procedure and the electronic cell analyzer system CASY 1, respectively, on day 3 after compound application. The 50% cytotoxic and growth inhibition concentrations were calculated from the mean dose–response curve (3.9 through 1000 µg mL^−1; dilution factor 2) of three separate experiments each with two parallels in the indicated cell lines.

Data set [2] can be described thus: in vitro. The data set is classed as in vitro ADME. The note with it: human, plasma. The method, then:
The separation of glycyl-rimantadine (4b) and Ala-rimantadine (4a) (internal standard, IS) was performed on an ultra-high-performance liquid chromatography (UHPLC) system (Bruker Daltonics, Germany), utilizing an RP Kinetex C18 column 100 mm × 2.1 mm, 2.6 μm, with a proguard column 2.1 mm (Phenomenex, USA). The mobile phase was composed of formic acid 0.1% in water (A) and acetonitrile (B). Gradient elution was chosen for the analysis, at a constant flow rate of 0.25 mL min^−1 and the following gradient profile: initial phase (B) concentration of 5% until 0.3 min, then increased to 80% within 1.2 min, kept constant for 1 min at 80% and then reduced to 5% at 2.6 min, until the end of the run at 4 min. The temperature in the autosampler and the column oven was maintained at 15 °C and 40 °C, respectively. The sample injection volume was set to 5 μL.
The EVOQ Elite ER (Bruker Daltonics, Germany) triple quadrupole mass spectrometer was operated in positive ionization electrospray mode (ESI) in multiple reaction monitoring (MRM) for the detection of glycyl-rimantadine (4b) and IS. The optimal MRM transitions for monitoring the analytes were determined and set as follows: m/z 237.1 → 163.2, 237.1 → 75.5 and 237.1 → 81.4 for glycyl-rimantadine and 251.1 → 163.2, 251.1 → 89.4 and 251.1 → 180.2 for the IS. The optimum ESI parameters were determined and set as follows: spray voltage at 4500 V; heated probe gas flow at 50 units; heated probe temperature at 150 °C; cone gas flow at 20 units; cone temperature at 300 °C and nebulizer gas flow at 50 units. The control of the LC and the MS, as well as the data acquisition, was performed using the MSWS software, version 8.2.1 (Bruker Datonics, Germany). […]
The in vitro plasma stability of glycyl-rimantadine (4b) was conducted by LC–MS/MS. […] The glycyl-rimantadine (4b) concentration was calculated via the standard calibration curve that was designed by plotting the area of the conjugate versus the IS area against the nominal concentration of the calibration standards. […]

In another data set the test system is MDCK cells. The note with it: high-nontoxic concentration, MDCK cells.
A short description of data set [3]: in vitro. The note with it: dog.
On the set-up of data set [4]: method as in doi:10.1177/095632029200300305, PMID 9706043, PMID 19116869. The note with it: orally introduced; cited from earlier work.

On to `CC(NC(=O)CN)C12CC3CC(CC(C3)C1)C2` (stereo not shown) [Compound 4b, glycyl-rimantadine], for which the IC50 in data set [1] amounted to 0.11 µM. In the data set “in vitro [2]”, this compound returned a share remaining at 6 h, 1.58 µg/mL of 97.5%; a fraction remaining at 12 h, 1.58 µg/mL of approximately 91%; a share remaining at 24 h, 1.58 µg/mL of 83.7%. For the same compound, the “HNTC (μM) MDCK Cells” value in the data set on MDCK cells amounted to 13.89 µM. For the same compound, in the data set “in vitro [3]”, the CC50 was more than 100 µM.
Take `CC(C)[C@H](N)C(=O)OCCOCn1cnc2c(=O)[nH]c(N)nc21` [Valacyclovir]: the “bioavailability, times higher than acyclovir” value in data set [4] is reported as 3–4 times.
